According to paper doi:10.64898/2025.12.10.692519v1 (biorxiv, 2025):
Like-named read-outs stand apart in the source and are kept apart here.

Tests used:
Experiment in all cases: cells
MESSA [1] = system: MESSA; design: species or system MES-SA/Mx2; settings: Homo sapiens, MES-SA, read-out: MES-SA
Tov21G = settings: Homo sapiens, TOV21G, 144 h, read-out: Lexibulin (CYT997)
MDA-MB-468 = settings: Homo sapiens, MDA-MB-468, 144 h, read-out: Lexibulin (CYT997)
THP-1 = settings: Homo sapiens, THP-1, 144 h, read-out: Lexibulin (CYT997)
H-1299 = settings: Homo sapiens, NCI-H1299, 144 h
HUT-78 = settings: Homo sapiens, HuT78, 144 h
786-O = settings: Homo sapiens, 786-0, 144 h, read-out: Lexibulin (CYT997)
PANC-1 = settings: Homo sapiens, PANC-1, 144 h, read-out: Lexibulin (CYT997)
NALM-6 = settings: Homo sapiens, NALM-6, 144 h
DU-145 = settings: Homo sapiens, DU-145, 144 h
HL-60 = settings: Homo sapiens, HL-60, 144 h
ACHN = settings: Homo sapiens, ACHN, 144 h
Karpas-299 = settings: Homo sapiens, KARPAS-299, 144 h
U-118 = settings: 144 h, read-out: Lexibulin (CYT997)
NOMO-1 = settings: Homo sapiens, NOMO-1, 144 h, read-out: Lexibulin (CYT997)
MCF-7 = settings: Homo sapiens, MCF7, 144 h
A-549 = settings: Homo sapiens, A549, 144 h
LnCaP = settings: Homo sapiens, LNCaP, 144 h
PC-3 = settings: Homo sapiens, PC-3, 144 h
HRT-18 = settings: Homo sapiens, HRT-18, 144 h
HGC-27 = settings: Homo sapiens, HGC-27, 144 h, read-out: Lexibulin (CYT997)
MESSA [2] = settings: Homo sapiens, MES-SA, 144 h
CCRF-CEM = settings: Homo sapiens, CCRF-CEM, 144 h, read-out: Lexibulin (CYT997)
HEP-2 = settings: Homo sapiens, HEp-2, 144 h
U87-MG = settings: Homo sapiens, U-87 MG, 144 h, read-out: Lexibulin (CYT997)
PLC-PRF5 = settings: Homo sapiens, PLC-PRF-5, 144 h, read-out: Lexibulin (CYT997)
REC-1 = settings: Homo sapiens, Rec1, 144 h
MOLM-14 = settings: Homo sapiens, MOLM-14, 144 h, read-out: Lexibulin (CYT997)
SW-872 = settings: Homo sapiens, SW872, 144 h
U2OS = settings: Homo sapiens, U2OS, 144 h, read-out: Eribulin
TG-LAM-76-P3 = system: TG-LAM-76-P3; design: species or system primary AML patient blasts; settings: 48 h, read-out: IC50 (µM) / AzaC
TG-LAM-145-P0 = system: TG-LAM-145-P0; design: species or system primary AML patient blasts; settings: 48 h
TG-LAM-140-P0 = system: TG-LAM-140-P0; design: species or system primary AML patient blasts; settings: 48 h
TG-LAM-141-P0 = system: TG-LAM-141-P0; design: species or system primary AML patient blasts; settings: 48 h
TG-LAM-138-P0 = system: TG-LAM-138-P0; design: species or system primary AML patient blasts; settings: 48 h
TG-LAM-135-P0 = system: TG-LAM-135-P0; design: species or system primary AML patient blasts; settings: 48 h
TG-LAM-139-P0 = system: TG-LAM-139-P0; design: species or system primary AML patient blasts; settings: 48 h
TG-LAM-75-P3 = system: TG-LAM-75-P3; design: species or system primary AML patient blasts; settings: 48 h, read-out: IC50 (µM) / AzaC
TG-LAM-136-P0 = system: TG-LAM-136-P0; design: species or system primary AML patient blasts; settings: 48 h
TG-LAM-142-P0 = system: TG-LAM-142-P0; design: species or system primary AML patient blasts; settings: 48 h
TG-LAM-134-P0 = system: TG-LAM-134-P0; design: species or system primary AML patient blasts; settings: 48 h
TG-LAM-77-P0 = system: TG-LAM-77-P0; design: species or system primary AML patient blasts; settings: 48 h
TG-LAM-143-P0 = system: TG-LAM-143-P0; design: species or system primary AML patient blasts; settings: 48 h, read-out: IC50 (µM) / AzaC
TG-LAM-144-P0 = system: TG-LAM-144-P0; design: species or system primary AML patient blasts; settings: 48 h

Compound: CC(=O)O[C@H]1C(=O)[C@@]2(C)[C@H]([C@H](OC(=O)c3ccccc3)[C@]3(O)C[C@H](OC(=O)[C@H](O)[C@@H](NC(=O)c4ccccc4)c4ccccc4)C(C)=C1C3(C)C)[C@]1(OC(C)=O)CO[C@@H]1C[C@@H]2O [paclitaxel]
- IC50 (MESSA [1]): 8 ± 5 nM

Compound: CCC[C@H](Nc1nc(-c2ccc(NC(=O)NCC)c(OC)c2)ncc1C)c1cccnc1 [Lexibulin]
- IC50 (Tov21G): 13 nM
- IC50 (MDA-MB-468): 685 nM
- IC50 (THP-1): 9 nM
- IC50 (H-1299; read-out: Lexibulin (CYT997)): 7 nM
- IC50 (HUT-78; read-out: Lexibulin (CYT997)): 6 nM
- IC50 (786-O): 165 nM
- IC50 (PANC-1): 13 nM
- IC50 (NALM-6; read-out: Lexibulin (CYT997)): 9 nM
- IC50 (DU-145; read-out: Lexibulin (CYT997)): 32 nM
- IC50 (HL-60; read-out: Lexibulin (CYT997)): 8 nM
- IC50 (ACHN; read-out: Lexibulin (CYT997)): 36 nM
- IC50 (Karpas-299; read-out: Lexibulin (CYT997)): 4 nM
- IC50 (U-118): 13 nM
- IC50 (NOMO-1): 280 nM
- IC50 (MCF-7; read-out: Lexibulin (CYT997)): 12 nM
- IC50 (A-549; read-out: Lexibulin (CYT997)): 21 nM
- IC50 (LnCaP; read-out: Lexibulin (CYT997)): 52 nM
- IC50 (PC-3; read-out: Lexibulin (CYT997)): 142 nM
- IC50 (HRT-18; read-out: Lexibulin (CYT997)): 31 nM
- IC50 (HGC-27): 8 nM
- IC50 (MESSA [2]; read-out: Lexibulin (CYT997)): 24 nM
- IC50 (CCRF-CEM): 8 nM
- IC50 (HEP-2; read-out: Lexibulin (CYT997)): 16 nM
- IC50 (U87-MG): 20 nM
- IC50 (PLC-PRF5): 25 nM
- IC50 (REC-1; read-out: Lexibulin (CYT997)): 10 nM
- IC50 (MOLM-14): 45 nM

Compound: C=C1C[C@@H]2CC[C@@]34C[C@H]5O[C@H]6[C@@H](O3)[C@H]3O[C@H](CC[C@@H]3O[C@H]6[C@H]5O4)CC(=O)C[C@@H]3[C@@H](OC)[C@@H](C[C@H](O)CN)O[C@H]3C[C@H]3O[C@@H](CC[C@@H]1O2)C[C@@H](C)C3=C [Eribulin]
- IC50 (H-1299; read-out: Eribulin): 75 nM
- IC50 (HUT-78; read-out: Eribulin): 1 nM
- IC50 (NALM-6; read-out: Eribulin): 2 nM
- IC50 (DU-145; read-out: Eribulin): 2 nM
- IC50 (HL-60; read-out: Eribulin): 2 nM
- IC50 (Karpas-299; read-out: Eribulin): 1 nM
- IC50 (A-549; read-out: Eribulin): 3 nM
- IC50 (SW-872; read-out: Eribulin): 83 nM
- IC50 (HRT-18; read-out: Eribulin): 99 nM
- IC50 (MESSA [2]; read-out: Eribulin): 121 nM
- IC50 (U2OS): 32 nM
- IC50 (HEP-2; read-out: Eribulin): 39 nM
- IC50 (REC-1; read-out: Eribulin): 125 nM

Compound: Nc1ncn([C@@H]2O[C@H](CO)[C@@H](O)[C@H]2O)c(=O)n1 [5-azacytidine]
- IC50 (TG-LAM-76-P3): 9.7 µM
- IC50 (TG-LAM-145-P0; read-out: IC50 (µM) / AzaC): 49.5 µM
- IC50 (TG-LAM-140-P0; read-out: IC50 (µM) / AzaC): 16.7 µM
- IC50 (TG-LAM-141-P0; read-out: IC50 (µM) / AzaC): 20.4 µM
- IC50 (TG-LAM-138-P0; read-out: IC50 (µM) / AzaC): > 50 µM
- IC50 (TG-LAM-135-P0; read-out: IC50 (µM) / AzaC): > 50 µM
- IC50 (TG-LAM-139-P0; read-out: IC50 (µM) / AzaC): 38.5 µM
- IC50 (TG-LAM-75-P3): 13 µM
- IC50 (TG-LAM-136-P0; read-out: IC50 (µM) / AzaC): > 50 µM
- IC50 (TG-LAM-142-P0; read-out: IC50 (µM) / AzaC): > 50 µM
- IC50 (TG-LAM-134-P0; read-out: IC50 (µM) / AzaC): 39.1 µM
- IC50 (TG-LAM-77-P0; read-out: IC50 (µM) / AzaC): 19.2 µM
- IC50 (TG-LAM-143-P0): 29.2 µM
- IC50 (TG-LAM-144-P0; read-out: IC50 (µM) / AzaC): 41.7 µM

Compound: CC[C@]1(O)C[C@H]2CN(CCc3c([nH]c4ccccc34)[C@@](C(=O)OC)(c3cc4c(cc3OC)N(C=O)[C@H]3[C@@](O)(C(=O)OC)[C@H](OC(C)=O)[C@]5(CC)C=CCN6CC[C@]43[C@@H]65)C2)C1 [Vincristine]
- IC50 (ACHN; read-out: Vincristine): 166 nM
- IC50 (MCF-7; read-out: Vincristine): 37 nM
- IC50 (LnCaP; read-out: Vincristine): 66 nM
- IC50 (SW-872; read-out: Vincristine): 31 nM
- IC50 (PC-3; read-out: Vincristine): 23 nM
- IC50 (HRT-18; read-out: Vincristine): 13 nM
- IC50 (MESSA [2]; read-out: Vincristine): 106 nM
- IC50 (REC-1; read-out: Vincristine): 56 nM
- IC50 (MESSA [1]): 7.9 ± 6 nM
- IC50 (TG-LAM-145-P0; read-out: IC50 (µM) / Vinc): > 2 µM
- IC50 (TG-LAM-140-P0; read-out: IC50 (µM) / Vinc): 1.13 µM
- IC50 (TG-LAM-141-P0; read-out: IC50 (µM) / Vinc): 1.38 µM
- IC50 (TG-LAM-138-P0; read-out: IC50 (µM) / Vinc): > 2 µM
- IC50 (TG-LAM-135-P0; read-out: IC50 (µM) / Vinc): > 2 µM
- IC50 (TG-LAM-139-P0; read-out: IC50 (µM) / Vinc): > 2 µM
- IC50 (TG-LAM-136-P0; read-out: IC50 (µM) / Vinc): 1.35 µM
- IC50 (TG-LAM-142-P0; read-out: IC50 (µM) / Vinc): > 2 µM
- IC50 (TG-LAM-134-P0; read-out: IC50 (µM) / Vinc): 0.17 µM
- IC50 (TG-LAM-77-P0; read-out: IC50 (µM) / Vinc): > 2 µM
- IC50 (TG-LAM-144-P0; read-out: IC50 (µM) / Vinc): 1.6 µM
